Values quoted from earlier work as cited in US20060089319A1, “Method for treatment and prevention of bacterial vaginosis” (priority 2004, published 2006).

Test system: bacterial vaginosis

SMILES: Cc1ncc([N+](=O)[O-])n1CCO [metronidazole]
- hospital admissions for preterm labor, preterm births, PROM, and low-birth-weight infants (oral, high-risk women with previous preterm delivery, double-blind study by Morales et al.): fewer
- long-term suppression of bacterial vaginosis flora (duration) (oral, pregnant women, two separate studies): 2-3 months
- treatment of bacterial vaginosis in pregnant women, thereby preventing preterm delivery (pregnant women, numerous studies): effective treatment
